Data reported in US20210101881A1 (Ancureall Pharmaceutical (Shanghai) Co., Ltd., priority 2018, published 2021).
Read-outs that look alike come from different tables or passages of the source.

How the values were obtained:
Sk-ov-3 = test: Growth inhibition of CDK9-positive tumor cell line in vitro; type: cell-based; conditions: Human ovarian cancer, read-out: Inhibitory activity (IC50) on growth in vitro, Sk-ov-3
Protocol: (§1) Measurement of the Inhibitory Activity of the Present Compound on the Growth of Various Types of CDK9-Positive Tumor Cell Lines In Vitro
(§2) The inventors selected representative CDK9-positive tumor cell lines for further determination of the compound activity. All cell lines used came from ATCC, JCRB, DSMZ and Chinese Academy of Sciences Cell Bank (ZK). Cell culture condition and method were based on the requirements of each cell line. No more than 3 passages were carried out in each culture in vitro. Monoclonal purification and STR identification of the cell line were conducted if necessary.

PC-9 = test: as above; type: cell-based; conditions: Human lung cancer, read-out: Inhibitory activity (IC50) on growth in vitro, PC-9
Protocol: as §1, §2

MFM-223 = test: as above; type: cell-based; conditions: Human breast cancer, read-out: Inhibitory activity (IC50) on growth in vitro, MFM-223
Protocol: as §1, §2

A375 = test: as above; type: cell-based; conditions: A-375, Human melanoma, read-out: Inhibitory activity (IC50) on growth in vitro, A375
Protocol: as §1, §2

NCI-H1581 = test: as above; type: cell-based; conditions: Human lung cancer, read-out: Inhibitory activity (IC50) on growth in vitro, NCI-H1581
Protocol: as §1, §2

TPC-1 = test: as above; type: cell-based; conditions: TPC1, Human thyroid cancer, read-out: Inhibitory activity (IC50) on growth in vitro, TPC-1
Protocol: as §1, §2

AGS = test: as above; type: cell-based; conditions: Human stomach cancer, read-out: Inhibitory activity (IC50) on growth in vitro, AGS
Protocol: as §1, §2

HCT-116 = test: as above; type: cell-based; conditions: Human intestinal cancer, read-out: Inhibitory activity (IC50) on growth in vitro, HCT-116
Protocol: as §1, §2

Colo205 = test: as above; type: cell-based; conditions: COLO 205, Human intestinal cancer, read-out: Inhibitory activity (IC50) on growth in vitro, Colo205
Protocol: as §1, §2

SK-BR-3 = test: as above; type: cell-based; conditions: Human breast cancer, read-out: Inhibitory activity (IC50) on growth in vitro, SK-BR-3
Protocol: as §1, §2

Pfeiffer = test: as above; type: cell-based; conditions: Human B lymphocyte tumor, read-out: Inhibitory activity (IC50) on growth in vitro, Pfeiffer
Protocol: as §1, §2

HCC1954 = test: as above; type: cell-based; conditions: Human breast cancer, read-out: Inhibitory activity (IC50) on growth in vitro, HCC1954
Protocol: as §1, §2

KHM-5M = test: as above; type: cell-based; conditions: read-out: Inhibitory activity (IC50) on growth in vitro, Human thyroid cancer
Protocol: as §1, §2

SK-MEL-28 = test: as above; type: cell-based; conditions: Human melanoma, read-out: Inhibitory activity (IC50) on growth in vitro, SK-MEL-28
Protocol: as §1, §2

MCF7 = test: as above; type: cell-based; conditions: Human breast cancer, read-out: Inhibitory activity (IC50) on growth in vitro, MCF7
Protocol: as §1, §2

NCI-H460 = test: as above; type: cell-based; conditions: Human lung cancer, read-out: Inhibitory activity (IC50) on growth in vitro, NCI-H460
Protocol: as §1, §2

KG-1 = test: as above; type: cell-based; conditions: Human acute myeloid leukemia, read-out: Inhibitory activity (IC50) on growth in vitro, KG-1
Protocol: as §1, §2

MOLM13 cells = test: Growth inhibition of CDK9-positive cell line MOLM13 in vitro (CCK8/MTT assay); type: cell-based, human; conditions: Homo sapiens
CDK9/CyclinK kinase = target: T1, CDK9/CyclinK kinase (Homo sapiens, UniProt P50750); test: CDK9 protein kinase activity, ADP-Glo CDK9/CyclinK kinase detection kit; type: biochemical; conditions: read-out: IC50 of the compound for inhibiting CDK9 protein kinase activity, CDK9/CyclinK kinase
T1 construct: purchased Promega Corporation V4105
Protocol: Measurement of CDK9 Protein Kinase Activity
The present compound was dissolved in DMSO (Sigma Aldrich), and the initial concentration of the compound was 1000 nM. A two-fold serial dilution was carried out. The specific operation of CDK9 kinase activity determination was carried out according to the ADP-Go™ CDK9/CyclinK kinase detection experimental procedure. […] Each test sample was tested in duplicate, and the test was repeated once. The inhibitory activity (IC50) of the compound on CDK9 protein kinase was calculated from the dose-inhibition curve of the compound.

MDA-MB-436 = test: Growth inhibition of CDK9-positive tumor cell line in vitro; type: cell-based; conditions: Human breast cancer, read-out: Inhibitory activity (IC50) on growth in vitro, MDA-MB-436
Protocol: as §1, §2

MDA-MB-231 = test: as above; type: cell-based; conditions: Human breast cancer, read-out: Inhibitory activity (IC50) on growth in vitro, MDA-MB-231
Protocol: as §1, §2

A549 = test: as above; type: cell-based, Human
Protocol: as §1, §2

[1] = MOLM-13, MOLM13 cells, cultured 3 to 6 days, CCK8, read-out: IC50 of the compound for inhibiting cell growth, MOLM13 cells
[2] = Human lung cancer, A549, read-out: Inhibitory activity (IC50) on growth in vitro, A549

T1 sequence (P50750 whole entry): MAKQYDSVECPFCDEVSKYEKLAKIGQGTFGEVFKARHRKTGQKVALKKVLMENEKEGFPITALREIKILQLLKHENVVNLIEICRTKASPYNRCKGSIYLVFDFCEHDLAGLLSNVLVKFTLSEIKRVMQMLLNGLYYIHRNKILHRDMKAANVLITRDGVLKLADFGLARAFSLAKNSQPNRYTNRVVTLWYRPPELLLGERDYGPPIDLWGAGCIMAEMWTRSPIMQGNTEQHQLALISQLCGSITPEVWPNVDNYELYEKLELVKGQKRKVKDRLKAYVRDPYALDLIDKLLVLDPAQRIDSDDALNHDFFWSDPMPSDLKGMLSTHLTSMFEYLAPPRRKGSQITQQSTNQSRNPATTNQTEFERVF
T1 sequence (O75909 whole entry partner): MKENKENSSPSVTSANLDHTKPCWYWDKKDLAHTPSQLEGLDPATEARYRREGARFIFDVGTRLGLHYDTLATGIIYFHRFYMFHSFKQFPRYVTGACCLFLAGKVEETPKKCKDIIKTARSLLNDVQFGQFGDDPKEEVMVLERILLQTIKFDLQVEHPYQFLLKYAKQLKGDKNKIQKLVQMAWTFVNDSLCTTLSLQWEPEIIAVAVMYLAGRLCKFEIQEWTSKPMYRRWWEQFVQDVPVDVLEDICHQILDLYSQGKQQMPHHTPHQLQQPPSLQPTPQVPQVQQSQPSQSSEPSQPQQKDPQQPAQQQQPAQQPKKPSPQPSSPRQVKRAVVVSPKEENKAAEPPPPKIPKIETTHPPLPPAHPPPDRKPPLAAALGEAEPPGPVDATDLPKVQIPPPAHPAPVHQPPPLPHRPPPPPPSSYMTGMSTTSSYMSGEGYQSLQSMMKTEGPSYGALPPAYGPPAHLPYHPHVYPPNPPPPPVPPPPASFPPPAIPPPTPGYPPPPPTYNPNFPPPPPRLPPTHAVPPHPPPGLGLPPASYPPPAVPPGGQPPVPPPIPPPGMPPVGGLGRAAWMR

Row | SMILES | IC50 (Sk-ov-3) [nM] | IC50 (PC-9) [nM] | IC50 (MFM-223) [nM] | IC50 (A375) [nM] | IC50 (NCI-H1581) [nM] | IC50 (TPC-1) [nM] | IC50 (AGS) [nM] | IC50 (HCT-116) [nM] | IC50 (Colo205) [nM] | IC50 (SK-BR-3) [nM] | IC50 (Pfeiffer) [nM] | IC50 (HCC1954) [nM] | IC50 (KHM-5M) [nM] | IC50 (SK-MEL-28) [nM] | IC50 (MCF7) [nM] | IC50 (NCI-H460) [nM] | IC50 (KG-1) [nM] | IC50 (MOLM13 cells; [1]) [nM] | IC50 (MDA-MB-436) [nM] | IC50 (MDA-MB-231) [nM] | also measured
1 | Cc1cc(Nc2ncc(Cl)c(-n3cc(C(N)=O)c4ccccc43)n2)ccc1N1CCN(C(C)C)CC1 [Compound 60, 1-{5-chloro-2-[4-(4-isopropyl-piperazin-1-yl)-3-methyl-phenylamino]-pyrimidin-4-yl}-1H-indole-3-carboxamide] | 10 to 100 | 100 to 1000 | 10 to 100 | 100 to 1000 | 10 to 100 | 10 to 100 | 100 to 1000 | 100 to 1000 | 100 to 1000 | 1 to 10 | 10 to 100 | 1 to 10 | 10 to 100 | 100 to 1000 | 10 to 100 | 100 to 1000 | 10 to 100 | < 1 |  |  | IC50 (CDK9/CyclinK kinase): 1 to 10 nM
2 | NC(=O)c1cn(-c2nc(Nc3cccc(N4CCN(C5CCOCC5)CC4)c3)ncc2F)c2ccccc12 [Compound 140, 1-(5-fluoro-2-{3-[4-(tetrahydro-pyran-4-yl)-piperazin-1-yl]-phenylamino}-pyrimidin-4-yl)-1H-indole-3-carboxamide] | < 1 | 1 to 10 | < 1 | 1 to 10 | < 1 | < 1 | 1 to 10 | 1 to 10 | 1 to 10 | < 1 | < 1 | < 1 | < 1 | 1 to 10 | < 1 | 1 to 10 | < 1 | < 1 | < 1 | < 1 | IC50 (A549; [2]): 1 to 10 nM
3 | CCN1CCN(c2cccc(Nc3ncc(F)c(-n4cc(C(N)=O)c5cc(OC)ccc54)n3)c2)CC1 [Compound 152, 1-{2-[3-(4-ethyl-piperazin-1-yl)-phenylamino]-5-fluoro-pyrimidin-4-yl}-5-methoxy-1H-indole-3-carboxamide] | < 1 | 1 to 10 | < 1 | 1 to 10 | < 1 | 1 to 10 | 1 to 10 | 1 to 10 | 1 to 10 | < 1 | < 1 | < 1 | 1 to 10 | 1 to 10 | < 1 | 1 to 10 | 1 to 10 |  | < 1 | < 1 | IC50 (A549; Homo sapiens, A549, read-out: Inhibitory activity (IC50) on growth in vitro, A549): 1 to 10 nM; IC50 (MOLM13 cells; MOLM-13, read-out: IC50 of the compound for inhibiting cell growth, MOLM13 cells): < 1 nM; IC50 (CDK9/CyclinK kinase): < 1 nM

Now from value to compound, other results behind:

Row | IC50 (Sk-ov-3) [nM] | IC50 (PC-9) [nM] | IC50 (MFM-223) [nM] | IC50 (A375) [nM] | IC50 (NCI-H1581) [nM] | IC50 (TPC-1) [nM] | IC50 (AGS) [nM] | IC50 (HCT-116) [nM] | IC50 (Colo205) [nM] | IC50 (SK-BR-3) [nM] | IC50 (Pfeiffer) [nM] | IC50 (HCC1954) [nM] | IC50 (KHM-5M) [nM] | IC50 (SK-MEL-28) [nM] | IC50 (MCF7) [nM] | IC50 (NCI-H460) [nM] | IC50 (KG-1) [nM] | IC50 (MOLM13 cells; [1]) [nM] | SMILES | IC50 (MDA-MB-436) [nM] | IC50 (MDA-MB-231) [nM] | also measured
4 | < 1 | 1 to 10 | < 1 | 1 to 10 | < 1 | < 1 | 1 to 10 | 1 to 10 | 1 to 10 | < 1 | < 1 | < 1 | < 1 | 1 to 10 | < 1 | 1 to 10 | < 1 | < 1 | CC(C)N1CCN(c2cccc(Nc3ncc(F)c(-n4cc(C(N)=O)c5ccccc54)n3)c2)CC1 [Compound 144, 1-{5-fluoro-2-[3-(4-isopropyl-piperazin-1-yl)-phenylamino]-pyrimidin-4-yl}-1H-indole-3-carboxamide] | < 1 | < 1 | IC50 (A549; [2]): 1 to 10 nM
5 | < 1 | 1 to 10 | < 1 | 1 to 10 | < 1 | 1 to 10 | 1 to 10 | 1 to 10 | 1 to 10 | < 1 | < 1 | < 1 | 1 to 10 | 1 to 10 | < 1 | 1 to 10 | 1 to 10 | < 1 | CCN1CCN(c2cccc(Nc3ncc(F)c(-n4cc(C(N)=O)c5cc(F)ccc54)n3)c2)CC1 [Compound 161, 1-{2-[3-(4-ethyl-piperazin-1-yl)-phenylamino]-5-fluoro-pyrimidin-4-yl}-5-fluoro-1H-indole-3-carboxamide] | < 1 | < 1 | IC50 (A549; [2]): 1 to 10 nM; IC50 (CDK9/CyclinK kinase): < 1 nM
